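Where inhibition never reached the appropriate level, the endpoint shown equals the highest concentration tested. Otherwise, values were interpolated linearly from a five-concentration, 48-hour dose response in 96-well plates. The concentration for full growth arrest is given as TGI.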
Legend:
Experiment in all cases: NCI tumour cell line growth inhibition, 48 h
[1] = tested on: P388 leukemia
[2] = tested on: HOP-18 NSCLC
[3] = tested on: P388/ADR leukemia
[4] = tested on: DLD-1 colon
[5] = tested on: SNB-78 CNS
[6] = tested on: XF 498 CNS
[7] = tested on: SN12K1 renal
[8] = tested on: DMS 114 small cell lung
[9] = tested on: M19-MEL melanoma
[10] = tested on: LXFL 529 NSCLC

With CSc1nc(NC2OCC(O)C(O)C2O)c(N)c(=O)n1C (centres undefined) the TGI [1] was over 100 µM, the TGI [2] was over 100 µM and the TGI [3] was over 100 µM. For the same compound, the TGI [4] was over 100 µM, the TGI [5] was over 100 µM and the TGI [6] was over 100 µM. For the same compound, the TGI [7] was over 100 µM.

Work on COC(=O)c1nc(-c2ccc3c(n2)C(=O)C(N)=C(OC)C3=O)c(N)c(-c2ccc(OC)c(OC)c2O)c1C yielded a TGI [1] of 3.74 µM, a TGI [2] of 17.8 µM and a TGI [3] of 3.17 µM. For the same compound, the TGI [4] was 3.42 µM, the TGI [5] was 8.38 µM and the TGI [6] was 2.85 µM. The TGI [8] was 2.31 µM, the TGI [7] was 3.38 µM and the TGI [9] was 1.26 µM.

Compound COc1ccc(C[C@H](N)C(=O)N2C[C@H](CO)C[C@H](n3cnc4c(N(C)C)ncnc43)C2)cc1 has a TGI [2] of over 100 µM, a TGI [4] of over 100 µM and a TGI [10] of over 100 µM. The TGI [8] was over 100 µM and the TGI [9] was over 100 µM.

With CN(C)CCCNc1c2ccccc2nc2cccc([N+](=O)[O-])c12 the TGI [5] was 0.0601 µM, the TGI [6] was 0.0147 µM and the TGI [8] was 0.0385 µM. It also gave a TGI [9] of 0.0787 µM.

COc1ccc(C[C@H](N)C(=O)N2C[C@H](CO)C[C@H](n3ccc(=O)[nH]c3=O)C2)cc1 gave a TGI [2] of over 100 µM, a TGI [4] of over 100 µM and a TGI [10] of over 100 µM. It also gave a TGI [8] of over 100 µM and a TGI [9] of over 100 µM.

C[C@@H]1C[C@]2(C[C@@H](C)[C@H]3C(C[C@@]4(C)CCC[C@@H]5C6=C[C@H](CCC34C)OC6=CC(=O)OC5(C)C)O2)OC1=O (some centres undefined) showed a TGI [1] of over 51.5 µM, a TGI [2] of over 51.5 µM and a TGI [3] of over 51.5 µM. The TGI [4] was over 51.5 µM, the TGI [5] was over 51.5 µM and the TGI [6] was over 51.5 µM. It also gave a TGI [8] of over 51.5 µM, a TGI [7] of over 51.5 µM and a TGI [9] of over 51.5 µM.

— PubChem BioAssay (NCI)
